pKi: −log10 of the molar value. Values belong to the compound of their own block, whether it stands above or below them. The source made the active and inactive calls. The calls are words filed in the database; no cut-off is given here.
Legend:
BMMSC [1] = assay: Induction of adipogenesis in human BMMSC cells assessed as increase in HMGCS2 mRNA at 1 uM incubated for 3 days by qRT-PCR analysis; type: functional, cell-based; conditions: time 3.0 day
BMMSC [2] = assay: Induction of adipogenesis in human BMMSC cells assessed as increase in ANGPTL4 mRNA at 1 uM incubated for 3 days by qRT-PCR analysis; type: functional, cell-based; conditions: time 3.0 day
BMMSC [3] = assay: Induction of adipogenesis in human BMMSC cells assessed as increase in HMGCR mRNA at 1 uM incubated for 3 days by qRT-PCR analysis; type: functional, cell-based; conditions: time 3.0 day
BMMSC [4] = assay: Induction of adipogenesis in human BMMSC cells assessed as increase in ACOX1 mRNA at 1 uM incubated for 3 days by qRT-PCR analysis; type: functional, cell-based; conditions: time 3.0 day
BMMSC [5] = assay: Induction of adipogenesis in human BMMSC cells assessed as increase in ACACB mRNA at 1 uM incubated for 3 days by qRT-PCR analysis; type: functional, cell-based; conditions: time 3.0 day
BMMSC [6] = assay: Induction of adipogenesis in human BMMSC cells assessed as increase in adiponectin secretion at 10 uM incubated for 5 days by ELISA; type: functional, cell-based; conditions: time 5.0 day
[7] = target: T1, Bile acid receptor (Homo sapiens) (UniProt Q96RI1); assay: Transactivation of FXR (unknown origin) by TR-FRET assay
T1 sequence (whole entry): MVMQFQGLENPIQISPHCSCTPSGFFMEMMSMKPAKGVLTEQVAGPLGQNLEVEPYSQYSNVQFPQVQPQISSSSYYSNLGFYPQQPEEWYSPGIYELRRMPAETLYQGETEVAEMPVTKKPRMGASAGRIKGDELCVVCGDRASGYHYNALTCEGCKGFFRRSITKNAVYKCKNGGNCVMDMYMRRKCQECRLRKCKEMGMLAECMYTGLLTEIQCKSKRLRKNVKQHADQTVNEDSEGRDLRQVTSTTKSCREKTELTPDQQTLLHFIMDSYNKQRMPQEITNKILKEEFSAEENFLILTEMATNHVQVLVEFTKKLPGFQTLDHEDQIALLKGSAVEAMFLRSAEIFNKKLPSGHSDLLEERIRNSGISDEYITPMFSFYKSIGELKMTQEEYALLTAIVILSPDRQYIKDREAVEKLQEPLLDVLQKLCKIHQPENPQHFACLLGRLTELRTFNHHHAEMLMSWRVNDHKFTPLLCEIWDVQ

BMMSC [8] = assay: Induction of adipogenesis in human BMMSC cells assessed as increase in ACACB mRNA at 10 uM incubated for 3 days by qRT-PCR analysis; type: functional, cell-based; conditions: time 3.0 day
BMMSC [9] = assay: Induction of adipogenesis in human BMMSC cells assessed as increase in adiponectin secretion incubated for 5 days by ELISA; type: functional, cell-based; conditions: time 5.0 day
BMMSC [10] = assay: Induction of adipogenesis in human BMMSC cells assessed as increase in ANGPTL4 mRNA at 10 uM incubated for 3 days by qRT-PCR analysis; type: functional, cell-based; conditions: time 3.0 day
[11] = target: T2, Peroxisome proliferator-activated receptor alpha (Homo sapiens, UniProt Q07869); assay: Binding affinity to PPARalpha (unknown origin) by TR-FRET assay
T2 sequence (Q07869 whole entry): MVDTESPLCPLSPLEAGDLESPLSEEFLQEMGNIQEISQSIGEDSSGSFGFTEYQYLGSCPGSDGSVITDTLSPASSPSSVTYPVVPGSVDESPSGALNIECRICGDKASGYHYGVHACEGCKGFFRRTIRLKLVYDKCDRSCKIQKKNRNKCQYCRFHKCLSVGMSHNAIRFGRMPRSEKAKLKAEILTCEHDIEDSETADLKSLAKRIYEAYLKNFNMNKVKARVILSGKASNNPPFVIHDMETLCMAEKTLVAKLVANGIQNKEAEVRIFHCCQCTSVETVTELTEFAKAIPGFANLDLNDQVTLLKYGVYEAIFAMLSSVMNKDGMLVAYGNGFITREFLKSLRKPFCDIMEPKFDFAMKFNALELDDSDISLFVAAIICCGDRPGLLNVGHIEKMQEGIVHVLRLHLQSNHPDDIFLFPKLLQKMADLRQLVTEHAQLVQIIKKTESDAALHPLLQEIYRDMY

BMMSC [12] = assay: Induction of adipogenesis in human BMMSC cells assessed as lipid droplet formation at 10 uM incubated for 5 days by oil red O staining based inverted microscopy analysis; type: functional, cell-based; conditions: time 5.0 day
BMMSC [13] = assay: Induction of adipogenesis in human BMMSC cells assessed as increase in adiponectin secretion at 10 uM in presence of GW501516 incubated for 5 days by ELISA; type: functional, cell-based; conditions: time 5.0 day
BMMSC [14] = assay: Induction of adipogenesis in human BMMSC cells assessed as increase in HMGCS2 mRNA at 10 uM incubated for 3 days by qRT-PCR analysis; type: functional, cell-based; conditions: time 3.0 day
[15] = target: T3, Oxysterols receptor LXR-beta (Homo sapiens) (UniProt P55055); assay: Transactivation of LXRbeta (unknown origin) by TR-FRET assay
T3 sequence (whole entry): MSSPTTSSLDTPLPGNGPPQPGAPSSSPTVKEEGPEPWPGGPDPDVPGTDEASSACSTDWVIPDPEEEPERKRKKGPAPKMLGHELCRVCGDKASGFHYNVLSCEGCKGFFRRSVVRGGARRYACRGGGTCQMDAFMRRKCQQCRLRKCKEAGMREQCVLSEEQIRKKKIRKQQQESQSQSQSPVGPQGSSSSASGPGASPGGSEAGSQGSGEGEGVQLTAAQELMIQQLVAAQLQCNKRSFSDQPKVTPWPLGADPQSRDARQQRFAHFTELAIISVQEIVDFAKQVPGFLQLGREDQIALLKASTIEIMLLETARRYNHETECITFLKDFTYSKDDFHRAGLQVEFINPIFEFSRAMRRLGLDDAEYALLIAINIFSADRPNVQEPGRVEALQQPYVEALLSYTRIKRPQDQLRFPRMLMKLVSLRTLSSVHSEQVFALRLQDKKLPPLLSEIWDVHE

BMMSC [16] = assay: Induction of adipogenesis in human BMMSC cells assessed as increase in ACOX1 mRNA at 10 uM incubated for 3 days by qRT-PCR analysis; type: functional, cell-based; conditions: time 3.0 day
[17] = target: T4, Glucocorticoid receptor (Homo sapiens) (UniProt P04150); assay: Binding affinity to glucocorticoid receptor (unknown origin) by TR-FRET assay
T4 sequence (whole entry): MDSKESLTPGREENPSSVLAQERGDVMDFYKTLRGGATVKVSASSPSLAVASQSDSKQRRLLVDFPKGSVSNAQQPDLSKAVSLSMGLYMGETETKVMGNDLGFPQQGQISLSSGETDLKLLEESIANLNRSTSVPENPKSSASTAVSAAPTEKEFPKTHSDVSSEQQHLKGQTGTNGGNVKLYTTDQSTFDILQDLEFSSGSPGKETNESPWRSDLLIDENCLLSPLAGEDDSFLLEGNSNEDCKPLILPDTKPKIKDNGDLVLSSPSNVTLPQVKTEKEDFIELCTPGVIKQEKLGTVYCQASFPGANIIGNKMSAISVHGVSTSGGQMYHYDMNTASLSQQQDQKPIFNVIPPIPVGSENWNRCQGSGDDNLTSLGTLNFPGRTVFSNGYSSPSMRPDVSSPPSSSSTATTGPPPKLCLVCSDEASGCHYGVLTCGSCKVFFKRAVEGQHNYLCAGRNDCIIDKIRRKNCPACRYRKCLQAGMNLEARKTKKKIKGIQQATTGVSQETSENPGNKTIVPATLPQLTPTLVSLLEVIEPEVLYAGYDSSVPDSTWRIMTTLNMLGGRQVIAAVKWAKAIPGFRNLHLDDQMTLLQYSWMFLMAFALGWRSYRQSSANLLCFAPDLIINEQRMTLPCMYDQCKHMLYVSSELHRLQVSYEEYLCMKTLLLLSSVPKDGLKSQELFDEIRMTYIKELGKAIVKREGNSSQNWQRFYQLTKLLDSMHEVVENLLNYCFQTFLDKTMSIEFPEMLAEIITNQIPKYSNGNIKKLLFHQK

[18] = target: T5, Peroxisome proliferator-activated receptor delta (Homo sapiens, UniProt Q03181); assay: Binding affinity to PPARdelta (unknown origin) by TR-FRET assay
T5 sequence (Q03181 whole entry): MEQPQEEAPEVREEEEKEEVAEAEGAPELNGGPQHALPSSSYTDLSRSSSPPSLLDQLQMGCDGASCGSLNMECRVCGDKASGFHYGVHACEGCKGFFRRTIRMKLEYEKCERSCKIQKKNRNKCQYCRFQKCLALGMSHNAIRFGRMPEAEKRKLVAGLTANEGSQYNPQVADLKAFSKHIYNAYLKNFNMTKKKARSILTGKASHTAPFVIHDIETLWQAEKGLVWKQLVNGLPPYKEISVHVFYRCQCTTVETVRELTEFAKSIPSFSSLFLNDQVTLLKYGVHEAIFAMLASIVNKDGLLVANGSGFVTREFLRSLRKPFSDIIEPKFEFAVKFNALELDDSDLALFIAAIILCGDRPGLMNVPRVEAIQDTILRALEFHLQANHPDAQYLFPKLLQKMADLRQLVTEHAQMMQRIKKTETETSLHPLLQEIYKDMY

[19] = target: T6, Oxysterols receptor LXR-alpha (Homo sapiens) (UniProt Q13133); assay: Transactivation of LXRalpha (unknown origin) by TR-FRET assay
T6 sequence (whole entry): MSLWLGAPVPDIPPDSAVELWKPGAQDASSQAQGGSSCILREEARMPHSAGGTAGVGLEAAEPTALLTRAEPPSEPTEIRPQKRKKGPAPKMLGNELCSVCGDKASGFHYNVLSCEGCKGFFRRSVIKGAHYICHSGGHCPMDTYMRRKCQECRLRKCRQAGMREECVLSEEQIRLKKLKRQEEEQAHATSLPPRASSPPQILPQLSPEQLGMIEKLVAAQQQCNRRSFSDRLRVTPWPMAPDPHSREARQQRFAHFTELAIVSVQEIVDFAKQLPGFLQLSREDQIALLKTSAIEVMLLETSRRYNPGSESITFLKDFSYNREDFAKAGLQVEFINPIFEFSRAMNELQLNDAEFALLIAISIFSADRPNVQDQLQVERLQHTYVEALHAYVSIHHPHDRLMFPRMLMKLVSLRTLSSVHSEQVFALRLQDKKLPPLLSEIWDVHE

BMMSC [20] = assay: Induction of adipogenesis in human BMMSC cells assessed as increase in adiponectin secretion at 10 uM in presence of WY14643 incubated for 5 days by ELISA; type: functional, cell-based; conditions: time 5.0 day
[21] = target: T7, Peroxisome proliferator-activated receptor gamma (Homo sapiens, UniProt P37231); assay: Binding affinity to PPARgamma (unknown origin) by TR-FRET assay
T7 sequence (P37231 whole entry): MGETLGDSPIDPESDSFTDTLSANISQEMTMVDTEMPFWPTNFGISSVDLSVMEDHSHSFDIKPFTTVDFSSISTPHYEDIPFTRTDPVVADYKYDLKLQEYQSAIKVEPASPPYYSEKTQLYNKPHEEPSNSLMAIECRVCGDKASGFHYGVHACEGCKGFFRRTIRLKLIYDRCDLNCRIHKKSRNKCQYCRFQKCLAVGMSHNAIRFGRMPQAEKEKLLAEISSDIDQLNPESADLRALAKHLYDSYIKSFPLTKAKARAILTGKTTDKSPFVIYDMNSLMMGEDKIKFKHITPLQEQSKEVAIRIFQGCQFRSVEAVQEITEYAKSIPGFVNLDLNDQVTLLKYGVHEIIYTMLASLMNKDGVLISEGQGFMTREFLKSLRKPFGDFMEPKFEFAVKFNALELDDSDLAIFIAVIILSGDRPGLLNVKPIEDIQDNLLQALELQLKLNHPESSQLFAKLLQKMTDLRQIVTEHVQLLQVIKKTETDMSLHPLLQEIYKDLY

BMMSC [22] = assay: Induction of adipogenesis in human BMMSC cells assessed as increase in HMGCR mRNA at 10 uM incubated for 3 days by qRT-PCR analysis; type: functional, cell-based; conditions: time 3.0 day
BMMSC [23] = assay: Induction of adipogenesis in human BMMSC cells assessed as increase in adiponectin mRNA at 10 uM incubated for 3 days by qRT-PCR analysis; type: functional, cell-based; conditions: time 3.0 day
BMMSC [24] = assay: Induction of adipogenesis in human BMMSC cells assessed as increase in adiponectin secretion at 10 uM in presence of pioglitazone incubated for 5 days by ELISA; type: functional, cell-based; conditions: time 5.0 day

SMILES: CCc1ccc(CCOc2ccc(CC3SC(=O)NC3=O)cc2)nc1 (stereo not given)
Activity (BMMSC [1]): inactive | Activity (BMMSC [2]): Active | Activity (BMMSC [3]): Active | Activity (BMMSC [4]): inactive | Activity (BMMSC [5]): Active

SMILES: C=CC(c1ccc(OC)c(OC)c1)c1c(O)cc(O)c2c(=O)cc(-c3ccccc3)oc12 (stereo not given)
Activity (BMMSC [6]): Active

Activity [7]: inactive | pKi [11]: 6.02 | Activity [15]: inactive | Activity [17]: inactive | pKi [18]: 5.93 | Activity [19]: inactive | pKi [21]: 5.85
SMILES: C=CC(c1ccccc1)c1c(O)cc(O)c2c(=O)cc(-c3ccccc3)oc12 (stereo not given)
Activity (BMMSC [6]): Active | Activity (BMMSC [8]): Active | Activity (BMMSC [9]): Dose-dependent effect | Activity (BMMSC [10]): Active | Activity (BMMSC [12]): Active | Activity (BMMSC [13]): Active | Activity (BMMSC [14]): Active | Activity (BMMSC [16]): Active | Activity (BMMSC [20]): Active | Activity (BMMSC [22]): Active | Activity (BMMSC [23]): Active | Activity (BMMSC [24]): Active

— ChEMBL document CHEMBL4665657, “2-Phenyl-8-(1-phenylallyl)-chromenone compounds have a pan-PPAR modulator pharmacophore” (Bioorg Med Chem, 2019)
